Here are results for 10 molecules from ChEMBL document CHEMBL5316362, “Synthesis of the Purported Structure of Glyphaeaside C and Proposed Revisions to the Structures of the Glyphaeaside Alkaloids” (J Nat Prod, 2023).

In general, IC50 refers to the point on the concentration scale where inhibition reaches its midpoint. For orientation: inhibition means the relative decrease from the control value, in per cent.

Structures are written as SMILES. The source made the active and inactive calls. The rule behind the calls is not given here.

Assay [1] in a line: Inhibition of Almond beta-glucosidase. The arrangement: species or system Prunus dulcis.
A short description of assay [2]: Inhibition of Almond beta-glucosidase using p-nitrophenyl glycoside as substrate preincubated for 5 mins followed by substrate addition and measured after 15 mins by spectrometry analysis. Also on record: species or system Prunus dulcis.
Assay [3] in a line: Inhibition of rice alpha glucosidase. The arrangement: species or system Oryza sativa.
Assay [4] in a line: Inhibition of rat intestinal maltase. The assay is classed as tissue-based, Intestine.
Another assay has as its target Alpha-glucosidase (Saccharomyces cerevisiae S288c, UniProt P53341+P38158+P07265). The assay is described as follows: Inhibition of yeast alpha-glucosidase. The format is protein assay.
Assay [5] deals with Lysosomal alpha-glucosidase (Homo sapiens, UniProt P10253). The assay is described as follows: Inhibition of human lysosomal alpha-glucosidase. The assay is classed as subcellular, Lysosome.
Assay [6] is described as follows: (§1) Inhibition of almond beta-glucosidase at 100 uM relative to control. Also on record: species or system Prunus dulcis.
Assay [7] can be described thus: Inhibition of Bovine liver beta-glucosidase. The assay is classed as tissue-based, Bos taurus.
Another assay addresses Alpha-galactosidase (Coffea arabica, UniProt Q42656). The assay is described as follows: Inhibition of coffee bean alpha-galactosidase.
Assay [8] can be described thus: Inhibition of bovine liver beta-galactosidase. The format is tissue-based, Bos taurus.
Assay [9] addresses T1, Alpha-mannosidase (Canavalia ensiformis) (UniProt C0HJB3).
T1 sequence (whole entry): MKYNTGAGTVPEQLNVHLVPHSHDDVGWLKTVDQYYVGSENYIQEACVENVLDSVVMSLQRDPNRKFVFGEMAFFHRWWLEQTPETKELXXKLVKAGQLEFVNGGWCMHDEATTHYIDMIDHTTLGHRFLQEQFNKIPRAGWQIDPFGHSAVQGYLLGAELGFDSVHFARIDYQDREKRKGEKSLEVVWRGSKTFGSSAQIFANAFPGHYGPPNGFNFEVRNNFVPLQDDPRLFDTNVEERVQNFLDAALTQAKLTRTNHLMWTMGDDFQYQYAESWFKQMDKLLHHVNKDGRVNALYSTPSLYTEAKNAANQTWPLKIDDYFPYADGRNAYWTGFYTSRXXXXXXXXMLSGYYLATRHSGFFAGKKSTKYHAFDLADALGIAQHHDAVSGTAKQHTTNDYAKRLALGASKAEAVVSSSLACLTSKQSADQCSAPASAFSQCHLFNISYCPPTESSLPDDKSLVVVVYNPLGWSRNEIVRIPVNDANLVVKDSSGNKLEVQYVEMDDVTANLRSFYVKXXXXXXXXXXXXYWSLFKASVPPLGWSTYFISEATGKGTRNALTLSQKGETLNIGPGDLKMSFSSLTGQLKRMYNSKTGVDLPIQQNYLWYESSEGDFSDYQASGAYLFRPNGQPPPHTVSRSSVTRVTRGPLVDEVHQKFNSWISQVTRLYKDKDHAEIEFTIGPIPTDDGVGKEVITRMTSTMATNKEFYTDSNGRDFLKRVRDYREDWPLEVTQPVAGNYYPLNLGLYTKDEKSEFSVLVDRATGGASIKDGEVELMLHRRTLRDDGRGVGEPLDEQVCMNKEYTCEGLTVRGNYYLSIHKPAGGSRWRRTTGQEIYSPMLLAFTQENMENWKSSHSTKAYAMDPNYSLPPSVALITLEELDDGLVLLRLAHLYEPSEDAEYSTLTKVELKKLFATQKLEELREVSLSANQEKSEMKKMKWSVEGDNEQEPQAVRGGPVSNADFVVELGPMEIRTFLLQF
The assay is described as follows: Inhibition of jack bean alpha-mannosidase at 1000 uM.

Assay [10] concerns Helix pomatia. The assay is described as follows: Inhibition of snail beta-mannosidase at 1000 uM.
Assay [11] addresses T2, Tissue alpha-L-fucosidase (Bos taurus) (UniProt Q2KIM0).
T2 sequence (whole entry): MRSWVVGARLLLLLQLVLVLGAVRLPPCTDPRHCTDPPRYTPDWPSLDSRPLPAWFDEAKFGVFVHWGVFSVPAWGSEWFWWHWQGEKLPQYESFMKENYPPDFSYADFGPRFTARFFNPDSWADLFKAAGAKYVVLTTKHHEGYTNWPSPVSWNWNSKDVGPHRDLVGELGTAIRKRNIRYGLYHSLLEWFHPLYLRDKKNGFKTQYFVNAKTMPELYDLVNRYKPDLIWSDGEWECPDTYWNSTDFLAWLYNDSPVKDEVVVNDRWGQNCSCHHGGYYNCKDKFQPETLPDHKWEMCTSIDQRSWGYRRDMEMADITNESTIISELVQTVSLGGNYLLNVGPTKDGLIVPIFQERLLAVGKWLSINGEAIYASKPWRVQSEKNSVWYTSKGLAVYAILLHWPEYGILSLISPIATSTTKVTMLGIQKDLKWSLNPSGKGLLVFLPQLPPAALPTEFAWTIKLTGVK
The assay is described as follows: Inhibition of bovine kidney alpha-L-fucosidase at 1000 uM. The assay is classed as tissue-based.

Assay [12] is filed under the species Sus scrofa. The assay is described as follows: Inhibition of porcine kidney trehalase at 1000 uM relative to control. The format is tissue-based.
The subject of assay [13] is Aspergillus niger. The assay is described as follows: Inhibition of Aspergillus niger amyloglucosidase at 1000 uM relative to control.
The test system of assay [14] is Penicillium decumbens. The assay is described as follows: Inhibition of Penicillium decumbens alpha-L-rhamnosidase at 1000 uM relative to control.
Assay [15] deals with Beta-glucuronidase (Escherichia coli (strain K12)) (UniProt P05804). The assay is described as follows: Inhibition of Escherichia coli beta-glucuronidase at 1000 uM.
Sequence of Beta-glucuronidase (Escherichia coli (strain K12)) (P05804 whole entry, looked up): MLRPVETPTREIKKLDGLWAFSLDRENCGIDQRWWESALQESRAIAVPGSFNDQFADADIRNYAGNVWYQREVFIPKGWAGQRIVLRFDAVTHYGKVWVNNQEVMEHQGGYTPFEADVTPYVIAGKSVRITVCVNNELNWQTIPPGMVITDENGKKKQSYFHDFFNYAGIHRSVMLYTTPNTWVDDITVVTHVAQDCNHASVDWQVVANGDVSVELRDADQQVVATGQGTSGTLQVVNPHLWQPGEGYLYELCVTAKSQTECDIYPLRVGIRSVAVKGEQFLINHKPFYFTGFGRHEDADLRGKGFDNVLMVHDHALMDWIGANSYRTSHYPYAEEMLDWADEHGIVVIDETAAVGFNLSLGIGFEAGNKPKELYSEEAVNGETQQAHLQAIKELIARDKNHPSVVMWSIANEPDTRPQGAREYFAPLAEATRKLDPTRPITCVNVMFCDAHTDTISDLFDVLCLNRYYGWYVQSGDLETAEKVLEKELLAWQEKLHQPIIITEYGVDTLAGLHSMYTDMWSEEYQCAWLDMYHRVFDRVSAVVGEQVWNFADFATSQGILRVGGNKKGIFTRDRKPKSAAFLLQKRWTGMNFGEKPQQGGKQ
The species entered for assay [16] is Bos taurus. The assay is described as follows: Inhibition of bovine liver beta-glucuronidase at 1000 uM. The format is tissue-based.
The nature of assay [17]: Inhibition of human lysosomal alpha-galactosidase. The assay is classed as subcellular, Lysosome.
Assay [18] relates to Prunus dulcis. The assay is described as follows: Inhibition of almond beta-glucosidase at 1000 uM relative to control.
Assay [19] deals with Prunus dulcis. The description is as §1.
A further assay is filed under the species Homo sapiens. The assay is described as follows: Inhibition of human lysosomal alpha-galactosidase at 100 uM realtive to control. The format is subcellular. Conditions: Lysosome.
Assay [20] has as its target T1, Alpha-mannosidase (Canavalia ensiformis). The assay is described as follows: Inhibition of jack bean alpha-mannosidase at 100 uM.
In assay [21] the test system is Helix pomatia. The assay is described as follows: Inhibition of snail beta-mannosidase at 100 uM.
Assay [22] concerns the target T2, Tissue alpha-L-fucosidase (Bos taurus). The assay is described as follows: Inhibition of bovine kidney alpha-L-fucosidase at 100 uM.
For assay [23], the species on record is Sus scrofa. The assay is described as follows: Inhibition of porcine kidney trehalase at 100 uM relative to control. The assay is classed as tissue-based.
In assay [24] the test system is Aspergillus niger. The assay is described as follows: Inhibition of Aspergillus niger amyloglucosidase at 100 uM relative to control.
Assay [25] relates to Penicillium decumbens. The assay is described as follows: Inhibition of Penicillium decumbens alpha-L-rhamnosidase at 100 uM relative to control.
Assay [26] concerns the target Beta-glucuronidase (Escherichia coli (strain K12)) (UniProt P05804). The assay is described as follows: Inhibition of Escherichia coli beta-glucuronidase at 100 uM.
Assay [27] is filed under the species Bos taurus. The assay is described as follows: Inhibition of bovine liver beta-glucuronidase at 100 uM.
The test system of assay [28] is Prunus dulcis. The assay is described as follows: Inhibition of Almond beta-glucosidase at 412 uM relative to control.
In assay [29] the target is Alpha-galactosidase (Coffea arabica) (UniProt Q42656). The assay is described as follows: Inhibition of coffee bean alpha-galactosidase at 1000 uM relative to control.
Sequence of Alpha-galactosidase (Coffea arabica) (Q42656 16-378 limits assumed): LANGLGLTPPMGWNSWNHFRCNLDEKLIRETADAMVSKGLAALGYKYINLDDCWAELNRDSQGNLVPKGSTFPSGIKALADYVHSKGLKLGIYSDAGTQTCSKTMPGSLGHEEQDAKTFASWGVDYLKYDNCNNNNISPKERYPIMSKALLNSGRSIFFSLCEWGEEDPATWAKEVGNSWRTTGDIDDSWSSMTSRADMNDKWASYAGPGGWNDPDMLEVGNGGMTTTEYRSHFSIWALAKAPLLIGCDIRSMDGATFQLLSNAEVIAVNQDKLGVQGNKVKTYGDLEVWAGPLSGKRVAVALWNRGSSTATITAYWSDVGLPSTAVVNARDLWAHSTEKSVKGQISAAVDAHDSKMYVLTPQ

Sequence of Alpha-galactosidase (Q42656 whole entry): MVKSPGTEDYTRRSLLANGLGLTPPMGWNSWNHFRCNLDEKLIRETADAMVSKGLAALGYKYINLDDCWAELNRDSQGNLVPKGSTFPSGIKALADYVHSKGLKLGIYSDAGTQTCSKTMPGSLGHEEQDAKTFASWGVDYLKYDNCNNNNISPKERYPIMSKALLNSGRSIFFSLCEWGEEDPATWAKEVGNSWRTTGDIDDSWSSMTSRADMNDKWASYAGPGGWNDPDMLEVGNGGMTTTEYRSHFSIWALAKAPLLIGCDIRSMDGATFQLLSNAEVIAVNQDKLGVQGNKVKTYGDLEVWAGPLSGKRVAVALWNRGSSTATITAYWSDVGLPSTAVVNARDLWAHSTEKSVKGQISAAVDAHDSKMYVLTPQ

Molecule `OC[C@H]1N[C@H]([C@H](O)CCCCCC[C@H](O)[C@@H](O)Cc2ccc(O)cc2)[C@@H](O)[C@@H]1O` displayed an IC50 in assay [1] of 0.92 µM. This counts as sub-micromolar.
Molecule `OC[C@H]1N[C@H](CCCCCCC(O)C(O)Cc2ccc(O)cc2)[C@H](O)[C@@H](O)[C@@H]1O` (some centres undefined) showed an IC50 in assay [2] of 0.15 µM.
For the molecule `OC[C@H]1N[C@H](CO)[C@@H](O)[C@H]1O`, 40 µM corresponded to half-maximal inhibition in [1] (IC50). This counts as double-digit micromolar.
With `CCCCCCCC[C@H]1N[C@H](CO)[C@@H](O)[C@H](O)[C@H]1O`, the IC50 in [3] came out at 0.7 µM; in assay [4], 1.7 µM; against Alpha-glucosidase, 71 µM; in assay [5] it was 0.6 µM; in assay [6], 175 µM; in assay [7], 195 µM. For the same molecule, the IC50 was found to be 3.3 µM on Alpha-galactosidase, 52 µM in assay [8], 175 µM in assay [1] and 13 µM in assay [17]. Moreover, the inhibition result (in assay [9]; in the assay on Helix pomatia [10]; in assay [11]; in assay [15]; in the assay filed under Bos taurus [16]) was “inactive” throughout. Further, the values for the inhibition in the assay listed under Sus scrofa [12], in the assay on Aspergillus niger [13] and in the assay with Penicillium decumbens [14] were 43.2%, 38.8% and 43.8%, respectively.
`OCCCCCC/C=C\C[C@H](O)[C@@H](O)[C@H]1N[C@H](CO)[C@H](O)[C@@H]1O[C@@H]1O[C@H](CO)[C@@H](O)[C@H](O)[C@H]1O`: the IC50 on Alpha-galactosidase is 8 µM. This molecule gave an inhibition in the assay on Prunus dulcis [18] of less than 50%.
Consider `O=C(O)C(F)(F)F.OC[C@H]1N[C@H](CCCCCCCCCc2ccc(O)cc2)[C@H](O)[C@@H](O)[C@@H]1O`, for which the IC50 in assay [3] amounted to 0.4 µM; in [4] it was 0.95 µM; at Alpha-glucosidase, 95 µM; in assay [5] it was 0.25 µM; in assay [7], 25 µM; against Alpha-galactosidase, 22 µM. In assay [8], this molecule displayed a half-inhibitory concentration (IC50) of 4.1 µM. For the same molecule, the inhibition in the assay on Prunus dulcis [19] was found to be 33.1%; in the assay filed under Homo sapiens, 42.9%; in the assay listed under Sus scrofa [23], 13.2%; in the assay on Aspergillus niger [24], 16.4%; with Penicillium decumbens [25], 10.9%. Besides, the inhibition entry (in assay [20]; in the assay with Helix pomatia [21]; in assay [22]; in [26]; in the assay listed under Bos taurus [27]) was “inactive” each time.
Molecule `OCCCCCCCCCCCC[C@H](O)[C@@H]1N[C@@H](CO)[C@H](O)[C@H]1O` gave an inhibition in the assay on Prunus dulcis [28] of 15.2%.
With `OC[C@H]1N[C@H]([C@H](O)C(O)CCCCCC(O)C(O)C(O)c2ccccc2)[C@@H](O[C@@H]2O[C@H](CO)[C@@H](O)[C@H](O)[C@H]2O)[C@H]1O` (some centres undefined), the 50% inhibitory concentration (IC50) in assay [1] was 15 µM.
In [29], `OC[C@H]1N[C@H](C(O)CCCCCCC(O)C(O)c2ccccc2)[C@H](O)[C@@H](O)[C@H]1O` (some centres undefined) came in with an inhibition of 76%.
In assay [1], `OC[C@H]1N[C@H]([C@H](O)C(O)CCCCCCC(O)C(O)c2ccccc2)[C@@H](O[C@@H]2O[C@H](CO)[C@@H](O)[C@H](O)[C@H]2O)[C@H]1O` (some centres undefined) displayed an IC50 of 68 µM. In other words, the double-digit micromolar range.
